Assay results as given in US8148424B2, “Tocopherols, tocotrienols, other chroman and side chain derivatives and uses thereof” (Research Development Foundation, priority 1998, dated 2012).
Read-outs that look alike come from different tables or passages of the source. One block for each molecule: values may come before it.

What was measured:
MDA-MB-435 = assay: Bioassay for apoptosis (apoptotic EC50); type: cell-based, human
Method: (§1) Cells were cultured at 1.5×10^5 cells/well in 12 well plates. Cells were allowed to adhere overnight, then incubated with novel test compounds at 0.01, 0.1, 1, 5, 10 & 20 μg/mL for 1, 2 and 3 days. After treatment, cells (floating+trypsin released adherent cells) were pelleted, washed and stained with 2 μg/ml DAPI (4′,6-diamidine-2′-phenylindole dihydrochloride) in 100% methanol for 15 minutes at 37° C. and/or 3′-OH ends resulting from DNA fragmentation were detected with the TUNEL (terminal deoxynucleotidyl transferase-mediated dUTP-X 3′ nick end-labeling) technique, and then viewed using a Zeiss ICM 405 microscope. Cells whose nucleus contained clearly condensed or fragmented chromatin or stained for fragmented DNA in the TUNEL assay were scored as apoptotic. Data are presented as percent cells undergoing apoptosis.

[1] = tested on: breast tumor cell line MDA-MB-435; assay: Bioassay for DNA synthesis arrest, naturally occurring vitamin E compounds; type: cell-based, human; conditions: Table 1
Method: Table 1 provides tumor growth inhibitory properties of naturally occurring vitamin E compounds against the breast tumor cell line MDA-MB-435.
To assay DNA synthesis, all cells were used at 2.5×10^5/ml. Cells were treated with each of the compounds at concentrations of 0.01, 0.1, 1, 5, 10 and 20 μg/mL and 200 μl of each treatment group were plated in quadruplicate in a 96 well culture plate (Corning, Corning N.Y.). Experiments were done in duplicate, one plate used for viability testing and the other plate for examination of ^3H-TdR uptake to monitor DNA synthesis. Plates were cultured for 48 hours at 37° C., 5% CO2. Eight hours prior to the end of incubation, ^3H-TdR was added to one of the duplicate plates and incubation continued for 8 hours.
The cells were then harvested (trypsinization was required to harvest adherent cells), and isotope uptake was determined as counts per minute (cpm). For viability studies, at the end of the incubation, the cells were removed from the wells and viability checked by the Trypan Blue Exclusion method. Percent viability and percent DNA synthesis in comparison to untreated or vehicle treated cells of each treatment group were calculated.

MCF-7 cells [2] = assay: DNA synthesis arrest by 3H-uptake (Example 8); type: cell-based, human; conditions: 3H-uptake at one day treatment
Method: (§2) MDA-MB-435 and MCF-7 cells at 1.5×10^5/well in 12 well plates for apoptosis and 1.5×10^4/well in 96 well plates for DNA synthesis arrest were incubated overnight in culture media and treated with α-tocopherol, α-tocotrinel, compound 1, 6-0-carboxymethyl alpha-tocotrienol (6-0-CM-α-T, 44), and vitamin E succinate (VES) at different concentrations in experimental media (2% serum for MDA-MB-435 cells and 5% serum for MCF-7 cells). DNA synthesis arrest was determined by ^3H-uptake at one day treatment and apoptosis was detected by DAPI staining at three day treatment. EC50 was calculated as the dosage of test compounds that gave 50% growth inhibition.

MDA-MB-435 cells [3] = assay: DNA synthesis arrest by 3H-uptake (Example 8); type: cell-based, human; conditions: for EC50: MDA-MB-435, 2% serum, 3H-uptake at one day treatment
Method: as §2

MCF-7 cells [4] = assay: Apoptosis by DAPI staining (Example 8); type: cell-based, human; conditions: 5% serum, DAPI staining at three day treatment
Method: as §2

MDA-MB-435 cells [5] = assay: Apoptosis by DAPI staining (Example 8); type: cell-based, human; conditions: for EC50: MDA-MB-435, 2% serum, DAPI staining at three day treatment
Method: as §2

A-549 = assay: Bioassay for apoptosis (apoptotic EC50); type: cell-based, human
Method: as §1

DLD-1 = assay: Bioassay for apoptosis (apoptotic EC50); type: cell-based, human; conditions: unit not given, in µg/mL
Method: as §1

DU-145 = assay: Bioassay for apoptosis (apoptotic EC50); type: cell-based, human; conditions: unit not given, in µg/mL
Method: as §1

HL-60 = assay: Bioassay for apoptosis (apoptotic EC50); type: cell-based, human
Method: as §1

HT-29 = assay: Bioassay for apoptosis (apoptotic EC50); type: cell-based, human
Method: as §1

Jurkat = assay: Bioassay for apoptosis (apoptotic EC50); type: cell-based, human
Method: as §1

LnCaP = assay: Bioassay for apoptosis (apoptotic EC50); type: cell-based, human; conditions: unit not given, in µg/mL
Method: as §1

MCF-7 = assay: Bioassay for apoptosis (apoptotic EC50); type: cell-based, human
Method: as §1

MDA-MB-231 = assay: Bioassay for apoptosis (apoptotic EC50); type: cell-based, human; conditions: MDA-MB-231; unit not given; in µg/mL
Method: as §1

ME-180 = assay: Bioassay for apoptosis (apoptotic EC50); type: cell-based, human
Method: as §1

Myeloma = assay: Bioassay for apoptosis (apoptotic EC50); type: cell-based, human; conditions: unit not given
Method: as §1

PC-3 = assay: Bioassay for apoptosis (apoptotic EC50); type: cell-based, human; conditions: PC-3; unit not given; in µg/mL
Method: as §1

RL-95-2 = assay: Bioassay for apoptosis (apoptotic EC50); type: cell-based, human; conditions: RL-95-2; unit not given; in µg/mL
Method: as §1

Raji = assay: Bioassay for apoptosis (apoptotic EC50); type: cell-based, human; conditions: unit not given
Method: as §1

Ramos = assay: Bioassay for apoptosis (apoptotic EC50); type: cell-based, human; conditions: unit not given
Method: as §1

C-170 = assay: Bioassay for apoptosis (apoptotic EC50); type: cell-based, human; conditions: Homo sapiens, C170, C-170; unit inferred
Method: as §1

PREC = assay: Bioassay for apoptosis (apoptotic EC50); type: cell-based; conditions: Homo sapiens, unit inferred
Method: as §1

[6] = MDA-MB-435, Table 1, read-out: EC50 for Apoptosis

Molecule: CC(C)=CCC/C(C)=C/CC/C(C)=C/CC[C@]1(C)CCc2c(C)c(OCC(=O)O)c(C)c(C)c2O1 [Compound 44]
EC50 (MCF-7 cells [2]; Homo sapiens, MCF7, 5% serum): 5 µM
EC50 (MDA-MB-435 cells [3]; Homo sapiens): 2.5 µM
antitumor activity (DNA synthesis arrest) higher than alpha-tocotrienol (MDA-MB-435 cells [3]; MDA-MB-435 and MCF-7): 8-12 fold
antitumor activity (DNA synthesis arrest) higher than compound 1 (MDA-MB-435 cells [3]; MDA-MB-435 and MCF-7): 4-6 fold
antitumor activity (DNA synthesis arrest) higher than vitamin E succinate (MDA-MB-435 cells [3]; MDA-MB-435 and MCF-7): 4-7 fold
EC50 (MCF-7 cells [4]; Homo sapiens, MCF7, 72 h): 10 µM
EC50 (MDA-MB-435 cells [5]; Homo sapiens, 72 h): 5.6 µM
induction of apoptosis higher than alpha tocotrienol (MDA-MB-435 cells [5]; MDA-MB-435 and MCF-7): 4-12 fold
induction of apoptosis higher than compound 1 (MDA-MB-435 cells [5]; MDA-MB-435 and MCF-7): 4-5 fold
induction of apoptosis higher than vitamin E succinate (MDA-MB-435 cells [5]; MDA-MB-435 and MCF-7): 4-6 fold

Molecule: CC(C)=CCC/C(C)=C/C=C/C(C)=C/[C@]1(C)CCc2c(C)c(OCC(=O)O)c(C)c(C)c2O1 [Compound 18]
EC50 (A-549; Homo sapiens, A549, unit inferred): > 20 µg/mL
EC50 (C-170): > 20 µg/mL
EC50 (HL-60; Homo sapiens, HL-60, HL-60, unit inferred): > 20 µg/mL
EC50 (HT-29; Homo sapiens, unit inferred): > 20 µg/mL
EC50 (Jurkat; Homo sapiens, unit inferred): > 20 µg/mL
EC50 (MCF-7; Homo sapiens, MCF7, MCF-7, unit inferred): > 20 µg/mL
EC50 (MDA-MB-435; Homo sapiens, MDA-MB-435, MDA-MB-435, unit inferred, read-out: apoptotic EC50): > 20 µg/mL
EC50 (ME-180; Homo sapiens, ME-180, ME-180, unit inferred): > 20 µg/mL
EC50 (PREC): > 20 µg/mL

Results, then the molecule that gave them:

EC50 (MDA-MB-435; [6]): > 400 µM
EC50 [1]: > 400 µM
EC50 (MCF-7 cells [2]; 5% serum): > 100 µM
EC50 (MDA-MB-435 cells [3]): > 100 µM
EC50 (MCF-7 cells [4]): > 100 µM
EC50 (MDA-MB-435 cells [5]): > 100 µM
Molecule: Cc1c(C)c2c(c(C)c1O)CC[C@@](C)(CCC[C@H](C)CCC[C@H](C)CCCC(C)C)O2 [α-tocopherol, RRR-α-tocopherol, reference compound]

apoptotic EC50 (A-549; unit not given, in µg/mL): 20-30
apoptotic EC50 (DLD-1): 10-20
apoptotic EC50 (DU-145): 10-20
apoptotic EC50 (HL-60; HL-60, unit not given, in µg/mL): 10-20
apoptotic EC50 (HT-29; unit not given, in µg/mL): 5-10
apoptotic EC50 (Jurkat; unit not given, in µg/mL): 10-20
apoptotic EC50 (LnCaP): 5-10
apoptotic EC50 (MCF-7; MCF-7, unit not given, in µg/mL): 10-20
apoptotic EC50 (MDA-MB-231): 5-10
apoptotic EC50 (MDA-MB-435; MDA-MB-435, unit not given, in µg/mL): 5-10
apoptotic EC50 (ME-180; ME-180, unit not given, in µg/mL): 10-20
apoptotic EC50 (Myeloma): 10-20
apoptotic EC50 (PC-3): 10-20
apoptotic EC50 (RL-95-2): 10-20
apoptotic EC50 (Raji): 10-20
apoptotic EC50 (Ramos): 10-20
EC50 (MCF-7 cells [2]; 5% serum): 22 µM
EC50 (MDA-MB-435 cells [3]): 17 µM
EC50 (MCF-7 cells [4]): 40 µM
EC50 (MDA-MB-435 cells [5]): 36 µM
Molecule: Cc1c(C)c2c(c(C)c1OC(=O)CCC(=O)O)CC[C@@](C)(CCC[C@H](C)CCC[C@H](C)CCCC(C)C)O2 [VES, RRR-α-tocopherol succinate, reference compound]

EC50 (MDA-MB-435; [6]): 50 µM
EC50 [1]: 40 µM
EC50 (MCF-7 cells [2]; 5% serum): 40 µM
EC50 (MDA-MB-435 cells [3]): 29 µM
EC50 (MCF-7 cells [4]): 40 µM
EC50 (MDA-MB-435 cells [5]): 66 µM
Molecule: α-tocotrienol [reference compound]
